# Results: patent publication US5849782A, “Methods of inhibiting neurodegenerative diseases” (The General Hospital Corporation, priority 1996, dated 1998)
# How the values were obtained:
# Male Sprague-Dawley rats [1] = assay: Striatal lesions produced by intrastriatal NMDA, AMPA, KA (TTC staining); format: in vivo, rat
# Method: Stereotaxic Lesion Technique. Male Sprague-Dawley rats (Charles River, Cambridge, Mass.) weighing 300-325 g were anesthetized with pentobarbital (50 mg/kg i.p.) and positioned in a David Kopf stereotaxic instrument with the incisor bar set at 3.3 mm below the intermural line. Malonate, NMDA, KA, and AMPA were dissolved in 0.1M phosphate-buffered saline (pH, 7.4). Intrastriatal injections were made with a 10 μl Hamilton syringe fitted with a 30 gauge blunt-tipped needle into the left striatum at the coordinates 0.5 mm anterior bregma, 2.6 mm lateral to the midline and 5 mm ventral to the dura. Injection volumes were 1 μl (3 μmol malonate). All injections were made over 1 min and the needle was left in place for an additional 1 min before being slowly withdrawn. 7-NI was dissolved and sonicated in peanut oil at a concentration of 10 mg/ml. 50 mg/kg of 7-NI were administered i.p. 30 min before striatal injections of malonate, NMDA, KA and AMPA. […] Nine to ten animals were used per group in each experiment.
# Quantification of Lesion Volume. One week after the striatal injections, animals were sacrificed by decapitation and the brains were rapidly removed, placed in cold saline for 10 min, and sectioned coronally into slices at 2 mm intervals. Slices were stained in 2% 2,3,5-triphenyltetrazolium chloride monohydrate (TTC) (Sigma, St. Louis, Mo.) solution at room temperature in the dark for 30 min followed by fixation in phosphate-buffered 4% paraformaldehyde. (Bederson et al. (1986) Stroke 17:1304-1308.) The lesioned area (noted by pale staining) was measured on the posterior surface of each section using an Apple Macintosh.COPYRGT. based image analysis system (Sony color video camera, Software: ColorSnap.COPYRGT. (Computer Friends Inc., Portland, Oreg.) and IPLab Spectrum.COPYRGT. (Signal Analytics, Vienna, Va.)). The lesions were evaluated by an experienced histologist, who verified the reliability of the TTC measurements in animals injected with malonate on adjacent sections stained with either TTC or Nissl stain (Schulz et al. (1995) J. Neurochem 64:in press).
# rats [2] = assay: Striatal ATP after intrastriatal malonate (luciferin-luciferase); format: in vivo, rat; conditions: 7-NI 50 mg/kg; 3 μmol malonate; measured 1.5 h after injection
# Method: ATP Measurements. The effects of 7-NI on malonate-induced decreases in striatal ATP concentrations were examined. 50 mg/kg of 7-NI dissolved in peanut oil or peanut oil vehicle were administered i.p. 0.5 h before intrastriatal injection of 3 μmol malonate. […] After decapitation the heads were rapidly frozen in liquid nitrogen and subsequently stored at -70° C. The striata were dissected from a 2 mm slice frontal and adjacent to the anterior commissure on a freezing cold plate. The corpus callosum, the septal complex, and the anterior commissure were used as dorsal and lateral, medial, and ventral boundaries. ATP was measured by the luciferin-luciferase assay (Lust et al. (1981) Anal. Biochem. 110-258-266). Proteins were measured on the pellets using a fluorimetric assay. Eight animals per group were examined.
# Male Sprague-Dawley rats [3] = assay: Lactate and lesion volume by magnetic resonance after intrastriatal malonate; format: in vivo, rat
# Method: Localized Lactate Measurements by Magnetic Resonance Spectroscopy. The effects on lactate production of intrastriatal injections of 3 μmol malonate and the influence of pretreatment with 7-NI on these lactate levels were assessed in vivo using magnetic resonance imaging (Brouillet et al. (1993) J. Neurochem. 60:356-359). Male Sprague-Dawley rats weighing 275-325 g received either i.p. injections of peanut oil (vehicle) or 50 mg/kg 7-NI (n=5-6 per group). […] Rats were imaged under halothane/N2 O/O2 anesthesia on a 4.7 Tesla GE Omega CSI Imager using a 30 mm bird cage coil at 1.5-2 h after striatal malonate injections. […] Lesion volumes were measured using a T2 -weighted sequence (TR/TE 3200/80 ms) with slice thickness of 2.5 mm, and a field of view of 40 mm. Lesion volumes were measured using a criterion for abnormal tissue of being 2 standard deviations above the mean signal intensity in the contralateral unaffected striatum. Lactate was measured using double phase encoding three dimensional (x,y,ω) water suppressed chemical shift imaging sequence with an inversion pulse for lipid suppression described earlier (Jenkins et al. (1993) Neurology 43:2689-2695). […] Lactate concentrations were measured in the lesioned striatum by delineating the striatum in the water image and overlaying the contours on the lactate images. […]
# rats [4] = assay: Striatal lesions produced by systemic 3-NP; format: in vivo, rat
# Method: Systemic 3-NP treatment. 3-NP was diluted in water and adjusted to pH 7.4 with NaOH and administered at a dose of 10 mg/kg i.p. every 12 h. With this dosing regimen the animals become acutely ill after 4 to 5 days and show large striatal lesions. (Beal et al. (1993) J. Neurosci. 13:4181-4192.) At the same time points, 25 mg/kg of 7-NI dissolved in peanut oil at a concentration of 10 mg/ml (treated group) or vehicle alone (peanut oil, control group) was administered s.c.. Since there was variability in the times at which animals became ill, they were clinically examined 3 hours after the injections and 1 animal of each group was sacrificed when an animal was acutely ill, regardless of whether it was a vehicle treated control or a 7-NI treated animal. In an initial experiment 12 animals per group were studied. Following sacrifice, striatal lesion size was assessed by TTC staining.
# In a second experiment, 5 animals per group were studied with the same treatment paradigm. Since the first experiment had shown by pairwise sacrifice that the vehicle treated animals always became ill before the 7-NI treated animals, a third experimental group of 5 animals was included to determine whether 7-NI treated animals become ill following administration of 3-NP. […] In this experiment animals were deeply anesthetized and transcardially perfused with ice cold saline, followed by phosphate buffered 4% paraformaldehyde (Beal et al. (1991) J. Neurosci. 11:1649-1659). Brains were sectioned at 50 μm intervals on a freezing microtome. Combined staining for Nissl substance and NADPH-diaphorase was performed. Adjacent sections were stained by immunohistochemistry with antibodies against ^8 -hydroxy-2deoxyguanosine.
# [5] = Babbedge et al. 1993; Moore et al. 1993; cited from earlier work
# [6] = 2 doses of 50 mg/kg 7-NI 4 h and 0.5 h before striatal injection
smiles,measurement,setting,value
"O=[N+]([O-])c1cccc2cn[nH]c12 [7-NI, 7-nitroindazole]",protection against lesions produced by 5 nmol KA,Male Sprague-Dawley rats [1]; [6],no protection
same,protection against lesions produced by 30 nmol AMPA,Male Sprague-Dawley rats [1]; [6],no protection
same,protection against lesions produced by 200 nmol NMDA,Male Sprague-Dawley rats [1]; [6],35%
same,"striatal lesion volume, 200 nmol NMDA","Male Sprague-Dawley rats [1]; single dose 7-NI 50 mg/kg i.p. before striatal injection, vehicle 25.0±2.4",21.3±3.4 mm^3
same,"striatal lesion volume, 30 nmol AMPA","Male Sprague-Dawley rats [1]; single dose 7-NI 50 mg/kg i.p. before striatal injection, vehicle 33.6±4.6",30.4±5.2 mm^3
same,"striatal lesion volume, 5 nmol KA","Male Sprague-Dawley rats [1]; single dose 7-NI 50 mg/kg i.p. before striatal injection, vehicle 39.5±2.9",36.3±4.4 mm^3
same,malonate-induced decreases of striatal ATP concentrations,rats [2],significantly attenuated
same,malonate-induced increase in striatal lactate concentrations (MR spectroscopy),"Male Sprague-Dawley rats [3]; 7-NI 50 mg/kg i.p. 0.5 h before striatal lesion, 1.5 h after malonate",significantly attenuated
same,lesion volume by T2-weighted MR imaging,"Male Sprague-Dawley rats [3]; 2 h after striatal malonate, n=6, vehicle 84.01±16.2, p<0.01",34.9±27.7 mm^3
same,protection of striatum from 3-NP lesions (Nissl/NADPH-diaphorase histology),"rats [4]; 3-NP 10 mg/kg every 12 h with 7-NI, n=5",completed protected
same,striatal lesions produced by 3-NP (TTC staining),"rats [4]; 3-NP 10 mg/kg i.p. every 12 h, 7-NI 50 mg/kg every 12 h as printed",completely prevented
same,median accumulative 3-NP dose at first symptoms,rats [4]; 12 h,130 mg/kg
same,effect on blood pressure in vivo,[5],no effect
